The results in this text go back to US12121524B2, “DNA-PK inhibitors” (VERTEX PHARMACEUTICALS INCORPORATED, priority 2018, dated 2024).

A word on the Ki: it is the dissociation constant of the complex between target and ligand, obtained from inhibition or displacement.

This experiment addresses DNA-PK (Homo sapiens, UniProt P78527). Kind of experiment: DNA-PK inhibition assay (standard radiometric 33P-ATP kinase assay). The experiment is classed as biochemical. The conditions noted are these: 100 μM ATP, approx. 6 nM DNA-PK. The protocol:
Compounds were screened for their ability to inhibit DNA-PK kinase using a standard radiometric assay. Briefly, in this kinase assay the transfer of the terminal ^33P-phosphate in ^33P-ATP to a peptide substrate is interrogated. The assay was carried out in 384-well plates to a final volume of 50 μL per well containing approximately 6 nM DNA-PK, 50 mM HEPES (pH 7.5), 10 mM MgCl2, 25 mM NaCl, 0.01% BSA, 1 mM DTT, 10 μg/mL sheared double-stranded DNA (obtained from Sigma), 0.8 mg/mL DNA-PK peptide (Glu-Pro-Pro-Leu-Ser-Gln-Glu-Ala-Phe-Ala-Asp-Leu-Trp-Lys-Lys-Lys, obtained from American Peptide), and 100 μM ATP.
Accordingly, compounds of the invention were dissolved in DMSO to make 10 mM initial stock solutions. Serial dilutions in DMSO were then made to obtain the final solutions for the assay. A 0.75 μL aliquot of DMSO or inhibitor in DMSO was added to each well, followed by the addition of ATP substrate solution containing ^33P-ATP (obtained from Perkin Elmer). The reaction was started by the addition of DNA-PK, peptide and ds-DNA. After 45 min, the reaction was quenched with 25 μL of 5% phosphoric acid. The reaction mixture was transferred to MultiScreen HTS 384-well PH plates (obtained from Millipore), allowed to bind for one hour, and washed three times with 1% phosphoric acid. Following the addition of 50 μL of Ultima Gold™ high efficiency scintillant (obtained from Perkin Elmer), the samples were counted in a Packard TopCount NXT Microplate Scintillation and Luminescence Counter (Packard BioScience). The Ki values were calculated using Microsoft Excel Solver macros to fit the data to the kinetic model for competitive tight-binding inhibition.
`c1cnc(N[C@H]2CC[C@@H](Nc3cc(N4CCOCC4)cc4nccnc34)CC2)nc1` [Compound 18, N^1-(7-morpholinoquinoxalin-5-yl)-N^4-(pyrimidin-2-yl)cyclohexane-1,4-diamine]: the Ki was < 100 nM.

Consider `c1cnc(N[C@H]2CC[C@@H](Nc3cc(N4CCOCC4)cc4nonc34)CC2)nc1` [Compound 23, (cis)-N^1-(6-morpholinobenzo[c][1,2,5]oxadiazol-4-yl)-N^4-(pyrimidin-2-yl)cyclohexane-1,4-diamine], for which the Ki is < 100 nM.

Take `c1ccc(N[C@H]2CC[C@@H](Nc3cc(N4CCOCC4)cc4nccnc34)CC2)nc1` [Compound 24]: the inhibition constant (Ki) was < 100 nM.

Turning to `c1cnc(N[C@H]2CC[C@@H](Nc3cc(N4CCOCC4)cc4nccnc34)CC2)cn1` [Compound 27], the Ki was < 100 nM.

For `c1cnc(N[C@H]2CC[C@@H](Oc3cc(N4CCOCC4)cc4nccnc34)CC2)nc1` [Compound 28, N-((cis)-4-((7-morpholinoquinoxalin-5-yl)oxy)cyclohexyl)pyrimidin-2-amine], the Ki is < 100 nM.

As for `O=C(O)c1cnc(N[C@H]2CC[C@@H](Nc3cc(N4CCOCC4)cc4nccnc34)CC2)nc1` [Compound 29], the Ki was < 100 nM.

With `c1ncc(N[C@H]2CC[C@@H](Nc3cc(N4CCOCC4)cc4nccnc34)CC2)cn1` [Compound 30], the Ki is < 100 nM.

For the compound `COC(=O)c1cnc(N[C@H]2CC[C@@H](Nc3cc(N4CCOCC4)cc4nccnc34)CC2)cn1` [Compound 32], the Ki was < 100 nM.

Take `c1cnc(N[C@H]2CC[C@@H](Oc3cc(N4CCOCC4)cc4nccnc34)CC2)cn1` [Compound 33]: the inhibition constant (Ki) was < 100 nM.

For the compound `C1=C(c2cc(O[C@H]3CC[C@@H](Nc4ncccn4)CC3)c3nccnc3c2)CCOC1` [Compound 36, N-[(cis)-4-[7-(3,6-dihydro-2H-pyran-4-yl)quinoxalin-5-yl]oxycyclohexyl]pyrimidin-2-amine], the inhibition constant (Ki) is < 100 nM.

Regarding `Fc1cnc(N[C@H]2CC[C@@H](Oc3cc(N4CCOCC4)cc4nccnc34)CC2)nc1` [Compound 37], the Ki was < 100 nM.

For the compound `Clc1cc(N[C@H]2CC[C@@H](Oc3cc(N4CCOCC4)cc4nccnc34)CC2)ncn1` [Compound 39], the Ki is < 100 nM.

Consider `N#Cc1cnc(N[C@H]2CC[C@@H](Oc3cc(N4CCOCC4)cc4nccnc34)CC2)nc1` [Compound 44], for which the Ki was < 100 nM.

Consider `Brc1cnc(N[C@H]2CC[C@@H](Oc3cc(N4CCOCC4)cc4nccnc34)CC2)nc1` [Compound 45], for which the Ki was < 100 nM.

For the compound `c1cnc(O[C@H]2CC[C@@H](Nc3cc(N4CCOCC4)cc4nccnc34)CC2)nc1` [Compound 46], the Ki was < 100 nM.

With `Fc1ccnc(N[C@H]2CC[C@@H](Oc3cc(N4CCOCC4)cc4nccnc34)CC2)n1` [Compound 49], the Ki is < 100 nM.

For `Fc1nccc(N[C@H]2CC[C@@H](Oc3cc(N4CCOCC4)cc4nccnc34)CC2)n1` [Compound 50], the inhibition constant (Ki) is < 100 nM.

Regarding `Fc1cc(N[C@H]2CC[C@@H](Oc3cc(N4CCOCC4)cc4nccnc34)CC2)ncn1` [Compound 51], the Ki was < 100 nM.

`Cc1cc(C)nc(N[C@H]2CC[C@@H](Oc3cc(N4CCOCC4)cc4nccnc34)CC2)n1` [Compound 52]: the Ki was < 100 nM.

In the case of `c1cnc(N[C@H]2CC[C@@H](Oc3cc(N4C[C@H]5CC[C@@H](C4)O5)cc4nccnc34)CC2)nc1` [Compound 53], the Ki was < 100 nM.

Turning to `COc1cncc(N[C@H]2CC[C@@H](Oc3cc(N4CCOCC4)cc4nccnc34)CC2)n1` [Compound 54], the Ki was < 100 nM.

On to `N#Cc1ccc(N[C@H]2CC[C@@H](Oc3cc(N4CCOCC4)cc4nccnc34)CC2)nn1` [Compound 55], for which the Ki was < 100 nM.

As for `N#Cc1ccc(N[C@H]2CC[C@@H](Oc3cc(N4CCOCC4)cc4nccnc34)CC2)nc1` [Compound 59], the Ki is < 100 nM.

Turning to `Fc1ccc(N[C@H]2CC[C@@H](Oc3cc(N4CCOCC4)cc4nccnc34)CC2)nn1` [Compound 60], the inhibition constant (Ki) was < 100 nM.

Regarding `O=C(N[C@H]1CC[C@@H](Oc2cc(N3CCOCC3)cc3nccnc23)CC1)C1CC1` [Compound 61], the Ki is < 100 nM.
